Tests used:
Conditions in all cases: incubation time: 72 h
BT-474 [1] = test: normalised response (% of control), CellTox Green; higher = less cell death (100 = DMSO, 0 = benzethonium chloride kill control)
Procedure, shortened: (§1)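 CellTox Green fluorescence (485/520 nm) and, after 10 min at room temperature, CellTiter-Glo luminescence were read from breast cancer cell lines incubated 72 h in 384-well plates. Cells were seeded as 20 µl suspension onto compound at 5 concentrations in 10-fold steps over a 10,000-fold range chosen per compound. Each plate was normalised to 0.1 % DMSO (100) and a positive kill control (0). Values are normalised signals, one per concentration.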

BT-549 [2] = test: as above
Procedure, shortened: as §1

CAL-120 [3] = test: as above
Procedure, shortened: as §1

CAL-148 [4] = test: as above
Procedure, shortened: as §1

CAL-51 [5] = test: as above
Procedure, shortened: as §1

CAL-85-1 [6] = test: as above
Procedure, shortened: as §1

DU-4475 [7] = test: as above
Procedure, shortened: as §1

HCC1143 [8] = test: as above
Procedure, shortened: as §1

HCC1599 [9] = test: as above
Procedure, shortened: as §1

HCC1937 [10] = test: as above
Procedure, shortened: as §1

HDQ-P1 [11] = test: as above
Procedure, shortened: as §1

Hs578T [12] = test: as above
Procedure, shortened: as §1

MCF-10A [13] = test: as above
Procedure, shortened: as §1

MDA-MB-231 [14] = test: as above
Procedure, shortened: as §1

MDA-MB-436 [15] = test: as above
Procedure, shortened: as §1

MDA-MB-453 [16] = test: as above
Procedure, shortened: as §1

MDA-MB-468 [17] = test: as above
Procedure, shortened: as §1

MFM-223 [18] = test: as above
Procedure, shortened: as §1

BT-474 [19] = test: normalised response (% of control), CellTiter-Glo; higher = more viable cells (100 = DMSO, 0 = benzethonium chloride kill control)
Description: (§2)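 DSRT, 72 h incubation, CellTox Green / CellTiter-Glo readout. Signal is normalised to DMSO and benzethonium chloride controls. Value is the normalised response at dose 3.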

BT-549 [20] = test: as above
Description: as §2

CAL-120 [21] = test: as above
Description: as §2

CAL-148 [22] = test: as above
Description: as §2

CAL-51 [23] = test: as above
Description: as §2

CAL-85-1 [24] = test: as above
Description: as §2

DU-4475 [25] = test: as above
Description: as §2

HCC1143 [26] = test: as above
Description: as §2

HCC1599 [27] = test: as above
Description: as §2

HCC1937 [28] = test: as above
Description: as §2

HDQ-P1 [29] = test: as above
Description: as §2

Hs578T [30] = test: as above
Description: as §2

MCF-10A [31] = test: as above
Description: as §2

MDA-MB-231 [32] = test: as above
Description: as §2

MDA-MB-436 [33] = test: as above
Description: as §2

MDA-MB-453 [34] = test: as above
Description: as §2

MDA-MB-468 [35] = test: as above
Description: as §2

MFM-223 [36] = test: as above
Description: as §2

SK-BR-3 = test: as above
Description: as §2

SMILES | normalised response (BT-474 [1]) [%] | normalised response (BT-549 [2]) [%] | normalised response (CAL-120 [3]) [%] | normalised response (CAL-148 [4]) [%] | normalised response (CAL-51 [5]) [%] | normalised response (CAL-85-1 [6]) [%] | normalised response (DU-4475 [7]) [%] | normalised response (HCC1143 [8]) [%] | normalised response (HCC1599 [9]) [%] | normalised response (HCC1937 [10]) [%] | normalised response (HDQ-P1 [11]) [%] | normalised response (Hs578T [12]) [%] | normalised response (MCF-10A [13]) [%] | normalised response (MDA-MB-231 [14]) [%] | normalised response (MDA-MB-436 [15]) [%] | normalised response (MDA-MB-453 [16]) [%] | normalised response (MDA-MB-468 [17]) [%] | normalised response (MFM-223 [18]) [%] | normalised response (BT-474 [19]) [%] | normalised response (BT-549 [20]) [%] | normalised response (CAL-120 [21]) [%] | normalised response (CAL-148 [22]) [%] | normalised response (CAL-51 [23]) [%] | normalised response (CAL-85-1 [24]) [%] | normalised response (DU-4475 [25]) [%] | normalised response (HCC1143 [26]) [%] | normalised response (HCC1599 [27]) [%] | normalised response (HCC1937 [28]) [%] | normalised response (HDQ-P1 [29]) [%] | normalised response (Hs578T [30]) [%] | normalised response (MCF-10A [31]) [%] | normalised response (MDA-MB-231 [32]) [%] | normalised response (MDA-MB-436 [33]) [%] | normalised response (MDA-MB-453 [34]) [%] | normalised response (MDA-MB-468 [35]) [%] | normalised response (MFM-223 [36]) [%] | normalised response (SK-BR-3) [%]
COc1ccc(-c2ccc3c(N4CCOC[C@@H]4C)nc(N4CCOC[C@@H]4C)nc3n2)cc1CO [AZD8055] (100 nM) | 96.5 | 103 | 98.2 | 79.2 | 82.3 | 104 | 94.9 | 80.1 | 87.7 | 97.7 | 109 | 93.9 | 84.6 | 94.6 | 97.7 | 85.5 | 13.6 | 67 | 72 | 40.2 | 41.5 | 49.5 | 35.7 | 41.1 | 80.1 | 45.1 | 93 | 66.9 | 51.3 | 49.7 | 50.4 | 62.3 | 51.5 | 42.1 | 47.3 | 36.9 | 27.5
C[C@]12CC[C@H](O)CC1=CC[C@@H]1[C@@H]2CC[C@]2(C)C(c3cccnc3)=CC[C@@H]12 [Abiraterone] (50 nM) | 100 | 96.5 | 101 | 106 | 105 | 95 | 101 | 109 | 110 | 116 | 111 | 107 | 63.7 | 58 | 96.5 | 104 | 128 | 108 | 104 | 101 | 106 | 108 | 81.5 | 105 | 107 | 104 | 124 | 95.1 | 100 | 104 | 99.8 | 103 | 99.7 | 99.7 | 101 | 105 | 103
CC(C)c1c(C(=O)Nc2ccccc2)c(-c2ccccc2)c(-c2ccc(F)cc2)n1CC[C@@H](O)C[C@@H](O)CC(=O)O [Atorvastatin] (100 nM) | 103 | 98.1 | 98.4 | 80.9 | 109 | 94.1 | 103 | 109 | 88.1 | 81.6 | 86.4 | 93.4 |  | 105 | 109 | 99.2 | 120 | 98 | 94.8 | 94 | 103 | 108 | 103 | 103 | 98.6 | 103 | 105 | 102 | 98 | 102 | 98.4 | 97.5 | 91.5 | 111 | 93.8 | 98.9 | 98.9
O=C(O)CCCc1ccc(N(CCCl)CCCl)cc1 [Chlorambucil] (100 nM) | 101 | 101 | 92.9 |  | 85.3 | 94.9 | 102 | 94.9 | 99 | 98.2 | 107 | 105 | 101 | 102 | 84.8 | 102 | 118 | 98.8 | 98.7 | 108 | 96.6 | 107 | 79.5 | 105 | 104 | 103 | 100 | 94 | 103 | 102 | 99.9 | 106 | 99.3 | 104 | 106 | 98.6 | 106
